Experimental data published in US20220305048A1, “USE OF HEPARIN TO PROMOTE TYPE 1 INTERFERON SIGNALING” (Dana-Farber Cancer Institute, Inc., priority 2019, published 2022).

Assays:
[1] = tested on: 631M/RPPM mouse SCLC cells; assay: CXCL10 ELISA of conditioned media, STING agonists +/- heparins; format: cell-based; details: for interaction between heparin and STING agonist (CXCL10 ELISA): 24 hours, p<0.0001 by 2-WAY ANOVA (FIG. 3C); for interaction between heparin and STING agonist on the amount of CXCL10 in the media: +/- 1 μg/mL heparin, 1 or 10 μg/mL cGAMP, 50 μM ADU, 0.2 mg/ml CMA, 24 hours (FIG. 3A)
Protocol: (§1) 1 mL of conditioned media from each treatment plate was collected after 24 hr culture unless otherwise specified. The collected media was centrifuged at 1400 RPM for 3 minutes to remove any cellular debris before use in the ELISA. Values represent the average of at least two independent biological replicates.

[2] = tested on: BEN-MEN-1 meningioma cells; assay: CXCL10 ELISA of conditioned media, ADU S-100 dose and time course +/- heparin; format: cell-based; details: 50 μg/mL and 100 μg/mL ADU-S100, heparin 10 μg/mL, 24 hours
Protocol: FIGS. 3A to 3B include plots showing that heparin dose-dependently enhances STING agonist effects across compounds. […] FIG. 3D includes a plot of showing the time course data for BenMen 1 cells with treatment for 3 and 6 days. The data reflects 24 hours treatment prior to collection of conditioned media for CXCL10 ELISA FIG. 3E includes plots showing RPPM mouse SCLC cells treated with 1 μg/mL 2,3-cGAMP and 1 μg/mL unfractionated heparin, low-molecular weight heparin (LMWH), heparin pentasaccharide fondaparinux, 6-desulfated heparin, chondroitin sulfate (CS)+/−the Janus kinase/signal transducers and activators of transcription (JAK/STAT) inhibitor ruxolitinib (ruxo 1 μg/mL) for 24 hours prior to CXCL10 ELISA. H69M human SCLC cells treated with 10 μg/mL 2,3-cGAMP+/−heparin 10 μg/mL or desulfated heparins 2-O desulfated (2DES), N-desulfated (NDES), and 6-O desulfated (6DES) 24 hours prior to CXCL10 ELISA. All panels reflect 24 hours treatment prior to collection of conditioned media for CXCL10 ELISA.
A 24-hour dose response study was also conducted on BEN-MEN-1 meningioma cells (hereafter “BenMen 1 cells”) and RPPM mouse SCLC cells. BenMen 1 cells were treated with various doses of ADU S-100 (0, 10, 20, 30, 50, and 100 μg/mL) either in the presence or absence of heparin (10 μg/mL). […]

[3] = tested on: BenMen 1 cells; RPPM mouse SCLC and MS428 human mesothelioma cell lines; assay: STING pathway western blot and CXCL10 ELISA with TBK1 or JAK/STAT inhibitor; format: cell-based; details: MRT TBK1 inhibitor 1 μM or 5 μM; ruxolitinib 1 μM
Protocol: FIG. 4A includes immunofluorescent images of fixed hLFB cells after 24 hours of treatment with cyanine-5 (Cy5) labeled 2,3-cGAMP 1 μg/mL+/−heparin 1 μg/mL. The staining represents actin phalloidin, DAPI (4′,6-diamidino-2-phenylindole), and Cy5-labeled cGAMP. FIG. 4B includes a western blot for STING pathway components in BEN-MEN-1 meningioma cells treated for 72 hours with 50 μM ADU+/−heparin 10 μg/mL and MRT TANK-binding kinase-1 (TBK1) inhibitor 5 μM. FIG. 4C includes plots showing CXCL10 ELISA after 24 hours treatment with 2,3-cGAMP (1 μg/mL) or ADU S-100 (50 μM unless otherwise indicated)+/−heparin (1 μg/mL in RPPM or 10 μg/mL in MS428), MRT TBK1 inhibitor 1 μM, or ruxolitinib JAK/STAT inhibitor (“ruxo”; ruxolitinib) 1 μM in RPPM mouse SCLC and MS428 human mesothelioma cell lines. FIG. 4D includes a plot showing the qPCR for Programmed death-ligand 1 (PD-L1) after 24 hours treatment 50 μM ADU+/−heparin 10 μg/mL and MRT TBK1 inhibitor in BEN-MEN-1 meningioma cells. ANOVA p<0.001 for all graphs. *p<0.05 ****p<0.0001 by Bonferroni corrected pairwise comparison.
The serine/threonine protein kinase, TBK1, is a critical regulator in innate immune signaling pathways that lead to the induction of type I interferon (IFN) and interferon-stimulated genes (ISGs). Dysregulation of TBK1 activity is often associated with autoimmune diseases and cancer. […]

[4] = tested on: H196 SCLC and MS428 meningioma cells; assay: Luminex cytokine array; format: cell-based, human; details: 5 μM MRT TBK1 inhibitor
Protocol: FIGS. 19A to 19B includes diagrams showing that heparin alters the release of multiple cytokines after STING agonist treatment. […] L2FC=LOG2 fold change.
The influence of heparin (with and without a STING agonist) on IL-6 and IL-8 levels was examined. […] This effect was reversed by MRT TBK1 inhibitor.
Multiplex assays were performed utilizing the Human Cytokine/Chemokine Maganetic Bead Panel (Cat. #HCYTMAG-60K-PX30) on a Luminex MAGPIX system (Merck Millipore). Conditioned media concentrations (pg/ml) for each cytokine were derived from parameter curve fitting models. Fold changes relative to the corresponding control were calculated and plotted as log 2FC.

[5] = tested on: B16F10 mouse melanoma cells; Lewis Lung Carcinoma (LLC) mouse non-small-cell lung cancer cells; assay: CXCL10 ELISA of conditioned media, interferons +/- heparin; format: cell-based; details: interferon 5 ng/mL +/- heparin 1 μg/mL, 24 hours
Protocol: as §1

[6] = tested on: Human lung fibroblasts (hLFB); assay: CXCL10 qPCR, 2,3-cGAMP +/- heparin; format: cell-based; details: 2,3-cGAMP 1 μg/mL, 24 hours
Protocol: FIG. 2 includes plots showing that heparin enhances STING agonist activity. FIG. 2A includes plots showing human lung fibroblasts (hLFB) and H69-mesenchymal (H69M) small cell lung cancer (SCLC) cells treated with 2,3-cGAMP 1 μg/mL+/−heparin 1 μg/mL for 24 hours prior to CXCL10 qPCR and collection of conditioned media for C—X—C motif chemokine 10 (CXCL10) ELISA (enzyme-linked immunosorbent assay). […] THP1=differentiated macrophages. hLFB=human lung fibroblasts. MEF=mouse embryonic fibroblasts. HUE=human umbilical endothelial cells. ANOVA p<0.001 for all figures. *p<0.05 ****p<0.0001 by Bonferroni corrected pairwise comparison.
Also, Human lung fibroblasts (hLFB) were treated with 2,3-cGAMP 1 μg/mL (hereafter referred to as “cGAMP)+/−heparin 1 μg/mL for 24 hours prior to CXCL10 qPCR and collection of conditioned media for CXCL10 ELISA (FIG. 2A).
RNA extraction was performed using the RNeasy Mini Kit (Qiagen, Cat. #74106). RNA samples (1000 ng) were reverse-transcribed into cDNA using Superscript® First-Strand Synthesis SuperMix (Thermo Fisher Scientific, Cat. #1683483). Quantitative real-time PCR was then performed using Power SYBR Green PCR Master Mix (Thermo Fisher Scientific, Cat. #4367659). The sequences of the primers used for qRT-PCR were obtained from previously published literature. Error bars represent technical replicates of each experiment.

Q: For Nc1ncnc2c1ncn2[C@@H]1O[C@@H]2CO[P@](=O)(S)O[C@@H]3C(O)[C@@H](CO[P@@](=O)(S)O[C@H]2[C@H]1O)O[C@H]3n1cnc2c(N)ncnc21 (stereo partly drawn) [ADU-S100], which “interaction between heparin and STING agonist (CXCL10 ELISA)” value [1] is on record?
A: significant interaction

Q: And the “interaction between heparin and STING agonist on the amount of CXCL10 in the media” value [1]?
A: significant interaction

Q: What about the “STING activity (CXCL10 concentration) in the presence vs absence of heparin” value [2] of the same molecule?
A: significantly higher STING activity

Q: For O=C(NCCCNc1nc(Nc2cccc(CN3CCOCC3)c2)ncc1C1CC1)C1CCC1 [MRT TBK1 inhibitor, MRT67307], which “STING activity after addition of inhibitor to heparin and ADU” value [3] is on record?
A: reduced the STING activity

Q: What about the “effect of heparin plus ADU on cytokines after TBK1 inhibitor” value [4] of the same molecule?
A: reversed

Q: How did the “amount of CXCL10 in the media with heparin compared to interferon alone” value [5] turn out when IFNg: interferon gamma (R&D systems) was run?
A: not seen

Q: What does the source list for cyclic GMP-AMP [cGAMP]?
A: STING activity (CXCL10 expression, qPCR), cGAMP in the absence of heparin [6]: negligible STING activity; interaction between heparin and STING agonist (CXCL10 ELISA) [1]: significant interaction; interaction between heparin and STING agonist on the amount of CXCL10 in the media [1]: significant interaction
